Assay results published in US6514980B1, “Nucleoside analogs in combination therapy of herpes simplex infections” (Novartis International Pharmaceutical Ltd., priority 1996, dated 2003).

Test system: HSV-1 (SC16)
Assay: Cutaneous HSV-1 infection of the ear pinna in mice immunosuppressed with Cyclosporin A (second experiment)
Assay type: in vivo
Settings: BALB/c mice immunosupressed with Cyclosporin A (second experiment) compared with immunocompetant mice (first experiment); oral antiviral treatment
Experimental: A cutaneous infection was established by inoculation of the ear pinnae of mice with HSV-1 (SC16) and the effects of oral famciclovir and valaciclovir on the latent virus infection was investigated.
BALB/c female mice (Bantin and Kingman, Kingston, Hull, UK) were purchased at 3 to 4 weeks old and inoculated one week later. Virus suspension (10 ul) containing 5×10^4 p.f.u. were inoculated into the skin of the left ear pinna. Skin thickness was measured daily in individual mice by means of an Engineers' micrometer screw gauge. (ref. Nash et al, 1980, J. Gen. Virol. 48, 351-357). Mice were killed daily and tissues removed for virus assays. Other mice were […]. The trigeminal ganglia and cervical dorsal root ganglia were removed and co-cultivated. Those cultures showing virus replication were recorded as positive.
In a first experiment, groups of immunocompetant mice were untreated (control), antiviral treatment was initiated on days 1, 2, 3, 4 or 5 post-infection (p.i.) and ceased on day 10 p.i.. The compounds were administered ad libitum in the drinking water, at 1 mg/ml (approximately 100 mg/kg/day).
In a second experiment, mice were immunosupressed with Cyclosporin A (CyA) from day-2 to day=10 (day 0 being the day of infection). […]

Row | Compound | effect on virus replication and disease
1 | CC(=O)OCC(CCn1cnc2cnc(N)nc21)COC(C)=O [famciclovir] | significantly greater effect
2 | CC(C)[C@H](N)C(=O)OCCOCn1cnc2c(=O)[nH]c(N)nc21 [valaciclovir] | significantly greater effect
